Tests used:
[1] = tested on: Rattus norvegicus; assay: Anti-inflammatory activity against carrageenan-induced paw edema in Sprague-Dawley rat assessed as inhibition of paw edema at 10 mg/kg, ip measured after 3 hrs relative to control; format: functional; parameters: scale not given: the % may be the effect or the level left
[2] = tested on: Rattus norvegicus; assay: Anti-inflammatory activity against carrageenan-induced paw edema in Sprague-Dawley rat assessed as inhibition of paw edema at 10 mg/kg, ip measured after 6 hrs relative to control; format: functional; parameters: scale not given: the % may be the effect or the level left
[3] = tested on: Rattus norvegicus; assay: Anti-inflammatory activity against carrageenan-induced paw edema in Sprague-Dawley rat assessed as reduction in edema measured after 3 hrs relative to indomethacin; format: functional; parameters: concentration or dose not given beside the values
[4] = tested on: Rattus norvegicus; assay: Anti-inflammatory activity against carrageenan-induced paw edema in Sprague-Dawley rat assessed as reduction in edema measured after 6 hrs relative to indomethacin; format: functional; parameters: concentration or dose not given beside the values
[5] = biological target: T1, Seed linoleate 13S-lipoxygenase-1 (Glycine max) (UniProt P08170); assay: Inhibition of soybean LOX-1 using linoleic acid as substrate at 100 uM relative to control
T1 sequence (whole entry): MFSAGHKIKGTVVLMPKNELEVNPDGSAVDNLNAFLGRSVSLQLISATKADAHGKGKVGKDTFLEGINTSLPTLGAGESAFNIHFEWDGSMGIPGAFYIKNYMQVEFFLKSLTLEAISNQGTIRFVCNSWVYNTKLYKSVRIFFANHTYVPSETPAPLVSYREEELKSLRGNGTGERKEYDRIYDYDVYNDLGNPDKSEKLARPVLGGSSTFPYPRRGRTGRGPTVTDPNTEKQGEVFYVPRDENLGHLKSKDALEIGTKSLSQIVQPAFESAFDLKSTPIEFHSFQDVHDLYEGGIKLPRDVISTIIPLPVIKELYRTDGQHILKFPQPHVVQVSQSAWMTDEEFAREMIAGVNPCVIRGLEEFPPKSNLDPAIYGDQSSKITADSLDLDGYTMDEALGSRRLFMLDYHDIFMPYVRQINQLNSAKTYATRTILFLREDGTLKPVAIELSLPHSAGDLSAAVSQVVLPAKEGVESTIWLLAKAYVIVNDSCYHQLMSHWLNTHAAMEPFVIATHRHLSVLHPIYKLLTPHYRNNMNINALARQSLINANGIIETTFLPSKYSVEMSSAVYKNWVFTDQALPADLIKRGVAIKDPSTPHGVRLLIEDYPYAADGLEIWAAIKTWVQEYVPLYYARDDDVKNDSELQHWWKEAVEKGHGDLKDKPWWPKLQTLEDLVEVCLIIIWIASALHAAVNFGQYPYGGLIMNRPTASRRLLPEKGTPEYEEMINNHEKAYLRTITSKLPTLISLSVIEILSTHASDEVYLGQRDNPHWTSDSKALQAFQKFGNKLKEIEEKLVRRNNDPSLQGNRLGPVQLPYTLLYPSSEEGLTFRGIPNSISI

[6] = biological target: T2, Seed linoleate 13S-lipoxygenase-1 (Glycine max, UniProt P08170); assay: Inhibition of soybean LOX-1 using linoleic acid as substrate
T2 sequence (P08170 whole entry): T1 sequence (whole entry)

[7] = tested on: BV-2; assay: Antiinflammatory activity in mouse BV-2 cells assessed as reduction in LPS-induced nitric oxide production at 10 uM relative to control; format: functional; parameters: scale not given: the % may be the effect or the level left
[8] = biological target: T3, Prostaglandin G/H synthase 2 (Homo sapiens, UniProt P35354); assay: Inhibition of COX-2 (unknown origin)
T3 sequence (P35354 whole entry): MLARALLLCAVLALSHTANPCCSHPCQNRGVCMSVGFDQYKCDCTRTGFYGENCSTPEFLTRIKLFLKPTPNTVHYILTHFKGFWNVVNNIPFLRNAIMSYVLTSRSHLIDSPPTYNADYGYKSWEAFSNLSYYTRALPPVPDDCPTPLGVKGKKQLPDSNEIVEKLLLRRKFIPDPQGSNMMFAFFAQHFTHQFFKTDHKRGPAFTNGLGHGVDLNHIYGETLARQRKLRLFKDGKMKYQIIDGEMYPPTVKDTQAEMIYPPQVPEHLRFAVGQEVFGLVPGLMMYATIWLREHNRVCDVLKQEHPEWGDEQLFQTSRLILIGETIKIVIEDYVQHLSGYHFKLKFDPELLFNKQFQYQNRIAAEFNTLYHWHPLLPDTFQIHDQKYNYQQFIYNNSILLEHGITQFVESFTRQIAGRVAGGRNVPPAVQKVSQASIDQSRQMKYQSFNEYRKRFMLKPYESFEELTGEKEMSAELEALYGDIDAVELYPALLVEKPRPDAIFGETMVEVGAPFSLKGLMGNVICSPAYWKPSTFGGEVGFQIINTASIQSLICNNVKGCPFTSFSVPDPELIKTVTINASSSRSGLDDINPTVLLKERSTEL

[9] = biological target: COX-1/COX-2 (Homo sapiens) (UniProt P35354+P23219); assay: Selectivity index, ratio of IC50 for COX-1 (unknown origin) to IC50 for COX-2 (unknown origin); format: protein assay
[10] = tested on: Rattus norvegicus; assay: Anti-inflammatory activity against Carrageenan-induced paw edema in rat assessed as reduction in edema measured after 6 hrs relative to control; format: functional; parameters: concentration or dose not given beside the values
[11] = Inhibition of LPS-induced NFkappaB activation in mouse RAW264.7 cells assessed as effect on LPS-induced nuclear translocation of NF-kappaB incubated for 1 hr; format: cell-based; details: RAW264.7, 1 h
[12] = tested on: RAW264.7; assay: Inhibition of LPS-induced NFkappaB activation in mouse RAW264.7 cells assessed as effect on LPS-induced nuclear translocation of NF-kappaB incubated for 1 hr at 5 uM relative to control; format: cell-based

Sequence of COX-1/COX-2 (Homo sapiens) (P23219 whole entry, looked up, one chain of several): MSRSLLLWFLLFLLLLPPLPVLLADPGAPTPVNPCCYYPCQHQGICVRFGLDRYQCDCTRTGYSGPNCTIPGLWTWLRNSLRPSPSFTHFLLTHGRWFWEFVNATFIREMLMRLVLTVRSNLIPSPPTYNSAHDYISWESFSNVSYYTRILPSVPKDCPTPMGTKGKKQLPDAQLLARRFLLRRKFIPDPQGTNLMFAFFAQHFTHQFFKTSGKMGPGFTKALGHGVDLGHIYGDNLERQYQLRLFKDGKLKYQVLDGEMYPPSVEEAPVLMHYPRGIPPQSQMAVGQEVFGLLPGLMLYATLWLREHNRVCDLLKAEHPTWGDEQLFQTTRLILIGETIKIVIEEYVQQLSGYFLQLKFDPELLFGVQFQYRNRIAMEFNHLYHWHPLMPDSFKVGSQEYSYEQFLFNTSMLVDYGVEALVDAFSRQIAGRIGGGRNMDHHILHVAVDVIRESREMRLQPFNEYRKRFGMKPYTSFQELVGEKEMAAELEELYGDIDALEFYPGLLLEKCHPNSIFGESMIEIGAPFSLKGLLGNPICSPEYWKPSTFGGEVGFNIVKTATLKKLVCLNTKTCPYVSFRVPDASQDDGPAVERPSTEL

SMILES: Cc1c(C(=O)/C=C/c2ccc(Cl)cc2)c(C(=O)/C=C/c2ccc(Cl)cc2)nn1-c1ccccc1
- Activity [1]: 24.37%
- Activity [2]: 28.31%
- Activity [3]: 53.2%
- Activity [4]: 57.97%

SMILES: O=C(/C=C/c1ccc(Oc2ccccc2)cc1)c1ccc(OCCCOc2ccc(C(=O)/C=C/c3ccc(Oc4ccccc4)cc3)cc2)cc1
- inhibition [5]: 100%
- IC50 [6]: 55 µM

SMILES: Cc1c(C(=O)/C=C/c2ccccc2)c(C(=O)/C=C/c2ccccc2)nn1-c1ccccc1
- Activity [1]: 32.58%
- Activity [2]: 38.9%
- Activity [3]: 77.66%
- Activity [4]: 79.67%

SMILES: Cc1c(C(=O)/C=C/c2ccco2)c(C(=O)/C=C/c2ccco2)nn1-c1ccccc1
- Activity [1]: 28.15%
- Activity [2]: 28.61%
- Activity [3]: 61.45%
- Activity [4]: 58.6%

SMILES: COc1cc(/C=C/C(=O)c2cccc(C(=O)/C=C/c3ccc(O)c(OC)c3)c2)ccc1O
- Activity [7]: 70%

SMILES: CC(/C=C/C(=O)c1ccc(OCCCOc2ccc(C(=O)/C=C/C(C)=C/c3ccccc3)cc2)cc1)=C\c1ccccc1
- inhibition [5]: 26.5%

SMILES: CN(C)c1ccc(/C=C/C=C/C(=O)c2ccc(OCCCCOc3ccc(C(=O)/C=C/C=C/c4ccc(N(C)C)cc4)cc3)cc2)cc1
- inhibition [5]: 27%

SMILES: Cc1ccc(-n2nc(C(=O)/C=C/c3ccccc3)c(C(=O)/C=C/c3ccccc3)c2C)cc1
- Activity [1]: 28.72%
- Activity [2]: 30.16%
- Activity [3]: 62.69%
- Activity [4]: 61.76%

SMILES: CN(C)c1ccc(/C=C/C=C/C(=O)c2ccc(OCCCOc3ccc(C(=O)/C=C/C=C/c4ccc(N(C)C)cc4)cc3)cc2)cc1
- inhibition [5]: 93%
- IC50 [6]: 56 µM

SMILES: O=C(/C=C/c1ccccc1)c1ccc(OCCCOc2ccc(C(=O)/C=C/c3ccccc3)cc2)cc1
- inhibition [5]: 76%

SMILES: O=C(/C=C/C=C/c1ccc([N+](=O)[O-])cc1)c1ccc(OCCCOc2ccc(C(=O)/C=C/C=C/c3ccc([N+](=O)[O-])cc3)cc2)cc1
- inhibition [5]: 95%

SMILES: COc1ccc(/C=C/C(=O)c2nn(-c3ccc(Br)cc3)c(C)c2C(=O)/C=C/c2ccc(OC)cc2)cc1
- IC50 [8]: 0.7 µM
- Ratio IC50 [9]: 76

SMILES: Cc1c(C(=O)/C=C/c2ccc(Cl)cc2Cl)c(C(=O)/C=C/c2ccc(Cl)cc2Cl)nn1-c1ccccc1
- Activity [10]: 12.86%

SMILES: O=C(/C=C/C=C/c1ccccc1)c1ccc(OCCCOc2ccc(C(=O)/C=C/C=C/c3ccccc3)cc2)cc1
- inhibition [5]: 41%

SMILES: O=C(/C=C/c1ccco1)c1ccc(OCCCOc2ccc(C(=O)/C=C/c3ccco3)cc2)cc1
- inhibition [5]: 57%

SMILES: O=C(/C=C/C(Br)=C/c1ccccc1)c1ccc(OCCCOc2ccc(C(=O)/C=C/C(Br)=C/c3ccccc3)cc2)cc1
- inhibition [5]: 24.5%

SMILES: O=C(/C=C/c1ccc(OCc2ccc(Br)cc2)cc1)c1ccc(OCCCOc2ccc(C(=O)/C=C/c3ccc(OCc4ccc(Br)cc4)cc3)cc2)cc1
- inhibition [5]: 41%

SMILES: Cc1c(C(=O)/C=C/c2ccc(Cl)cc2Cl)c(C(=O)/C=C/c2ccc(Cl)cc2Cl)nn1-c1ccc(Br)cc1
- Activity [10]: 9.26%

SMILES: Cc1ccc(-n2nc(C(=O)/C=C/c3ccc(Cl)cc3Cl)c(C(=O)/C=C/c3ccc(Cl)cc3Cl)c2C)cc1
- Activity [10]: 10.71%

SMILES: COc1ccc(/C=C/C(=O)c2nn(-c3ccccc3)c(C)c2C(=O)/C=C/c2ccc(OC)cc2)cc1
- Activity [1]: 32.69%
- Activity [2]: 35.92%
- Activity [3]: 71.35%
- Activity [4]: 73.56%

SMILES: O=C(/C=C/c1cccs1)c1ccc(OCCCOc2ccc(C(=O)/C=C/c3cccs3)cc2)cc1
- inhibition [5]: 32%

SMILES: Cc1ccc(/C=C/C(=O)c2ccc(OCCCOc3ccc(C(=O)/C=C/c4ccc(C)o4)cc3)cc2)o1
- inhibition [5]: 52%

SMILES: Cc1c(C(=O)/C=C/c2ccc(Cl)cc2Cl)c(C(=O)/C=C/c2ccc(Cl)cc2Cl)nn1-c1ccc(F)cc1
- Activity [10]: 13.57%

SMILES: CN(C)c1ccc(/C=C/C=C/C(=O)c2ccc(OCCOc3ccc(C(=O)/C=C/C=C/c4ccc(N(C)C)cc4)cc3)cc2)cc1
- inhibition [5]: 77%

SMILES: COc1ccc(/C=C/C(=O)c2nn(-c3ccc(F)cc3)c(C)c2C(=O)/C=C/c2ccc(OC)cc2)cc1
- IC50 [8]: 0.32 µM
- Ratio IC50 [9]: 312
- Activity [10]: 65.21%

SMILES: CN(C)c1ccc(/C=C/C=C/C(=O)c2ccc(OCCCCCCCOc3ccc(C(=O)/C=C/C=C/c4ccc(N(C)C)cc4)cc3)cc2)cc1
- inhibition [5]: 65%

SMILES: Cc1c(C(=O)/C=C/c2ccc(Cl)cc2Cl)c(C(=O)/C=C/c2ccc(Cl)cc2Cl)nn1-c1ccc(Cl)cc1
- Activity [10]: 15.36%

SMILES: Cc1c(C(=O)/C=C/c2ccco2)c(C(=O)/C=C/c2ccco2)nn1-c1ccc(F)cc1
- Activity [10]: 16.79%

SMILES: CN(C)c1ccc(/C=C/C=C/C(=O)c2ccc(OCCCCCCOc3ccc(C(=O)/C=C/C=C/c4ccc(N(C)C)cc4)cc3)cc2)cc1
- inhibition [5]: 7%

SMILES: Cc1c(C(=O)/C=C/c2ccco2)c(C(=O)/C=C/c2ccco2)nn1-c1ccc(Cl)cc1
- IC50 [8]: 1.5 µM
- Ratio IC50 [9]: 65.3
- Activity [10]: 27.86%

SMILES: Cc1ccc(-n2nc(C(=O)/C=C/c3ccc(Cl)cc3)c(C(=O)/C=C/c3ccc(Cl)cc3)c2C)cc1
- Activity [1]: 21.23%
- Activity [2]: 25.92%
- Activity [3]: 59.87%
- Activity [4]: 53.08%

SMILES: Cc1ccc(-n2nc(C(=O)/C=C/c3ccco3)c(C(=O)/C=C/c3ccco3)c2C)cc1
- Activity [1]: 9.69%
- Activity [2]: 11.33%
- Activity [3]: 21.14%
- Activity [4]: 23.2%

SMILES: CN(C)c1ccc(/C=C/C=C/C(=O)c2ccc(OCCCCCOc3ccc(C(=O)/C=C/C=C/c4ccc(N(C)C)cc4)cc3)cc2)cc1
- inhibition [5]: 23%

SMILES: O=C1/C(=C/c2ccccn2)CNC/C1=C\c1ccccn1
- IC50 [11]: 4.5 µM
- inhibition [12]: 100%

SMILES: O=C(/C=C/c1c[nH]c2ccccc12)c1ccc(OCCCOc2ccc(C(=O)/C=C/c3c[nH]c4ccccc34)cc2)cc1
- inhibition [5]: 98%

SMILES: Cc1c(C(=O)/C=C/c2ccco2)c(C(=O)/C=C/c2ccco2)nn1-c1ccc(Br)cc1
- Activity [10]: 1.07%

SMILES: O=C(/C=C/c1cccc2ccccc12)c1ccc(OCCCOc2ccc(C(=O)/C=C/c3cccc4ccccc34)cc2)cc1
- inhibition [5]: 100%
- IC50 [6]: 55 µM

SMILES: COc1ccc(/C=C/C(=O)c2nn(-c3ccc(Cl)cc3)c(C)c2C(=O)/C=C/c2ccc(OC)cc2)cc1
- IC50 [8]: 0.3 µM
- Ratio IC50 [9]: 333
- Activity [10]: 66.21%

SMILES: COc1ccc(/C=C/C(=O)c2nn(-c3ccc(C)cc3)c(C)c2C(=O)/C=C/c2ccc(OC)cc2)cc1
- Activity [1]: 27.43%
- Activity [2]: 21.38%
- Activity [3]: 59.87%
- Activity [4]: 43.78%

SMILES: CN(C)c1ccc(/C=C/C=C/C(=O)c2ccc(OCCCCCCCCOc3ccc(C(=O)/C=C/C=C/c4ccc(N(C)C)cc4)cc3)cc2)cc1
- inhibition [5]: 12%

Reference: ChEMBL document CHEMBL5346938, “Bis-chalcones: A review of synthetic methodologies and anti-inflammatory effects” (Eur J Med Chem, 2023)
